Data taken from US20070117743A1, “New antitumoral compounds” (priority 2003, published 2007).
Where a SMILES comes first, the peptide text is derived from it. Bridges are numbered along the chain shown (N, C = ends). [ ]: non-standard residue; d: D form. The star is where a group is joined. d(aIle) = CC[C@H](C)[C@@H](N)C(=O)O; d(aThr) = C[C@@H](O)[C@@H](N)C(=O)O; Hexanoyl(5-Me) = CC(C)CCCC(=O)*; Orn = NCCC[C@H](N)C(=O)O; Dhb = C/C=C(\N)C(=O)O

Assays:
Type in all cases: cell-based, human
LNCaP = assay: SRB colorimetric assay of cell growth and viability, LNCaP; conditions: LN-caP, 48 hours exposure; for CC50: read-out: LC50 LN-caP
LoVo-Dox = assay: SRB colorimetric assay of cell growth and viability, LoVo-Dox; conditions: LOVO-DOX, 48 hours exposure; for CC50: read-out: LC50 LOVO-DOX
Outline: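 First, 5×10^3 cells per well attach for 18 hours in RPMI 1640 with 10% FBS at 37° C and 5% CO2. Next, samples spanning 10 to 10^−8 μg/mL are added for 48 hours. Finally, cells are fixed with TCA, stained with SRB for 10 minutes and read at 490 nm.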

DU-145 = assay: SRB colorimetric assay of cell growth and viability, DU-145; conditions: DU-145; 48 hours exposure
HeLa-APL = assay: SRB colorimetric assay of cell growth and viability, HeLa-APL; conditions: HELA-APL, 48 hours exposure; for CC50: read-out: LC50 HELA-APL
HT-29 = assay: SRB colorimetric assay of cell growth and viability, HT-29; conditions: HT-29, 48 hours exposure; for GI50: read-out: GI50 HT-29; for CC50: read-out: LC50 HT-29
IGROV-1 = assay: SRB colorimetric assay of cell growth and viability, IGROV-1; conditions: IGROV; 48 hours exposure
PANC-1 = assay: SRB colorimetric assay of cell growth and viability, PANC-1; conditions: PANC-1, 48 hours exposure; for CC50: read-out: LC50 PANC-1
A-549 = assay: SRB colorimetric assay of cell growth and viability, A-549; conditions: A-549, 48 hours exposure; for GI50: read-out: GI50 A-549; for CC50: read-out: LC50 A-549
HeLa = assay: SRB colorimetric assay of cell growth and viability, HeLa; conditions: HELA, 48 hours exposure; for CC50: read-out: LC50 HELA
SK-BR-3 = assay: SRB colorimetric assay of cell growth and viability, SK-BR-3; conditions: SK-BR-3; 48 hours exposure
K-562 = assay: SRB colorimetric assay of cell growth and viability, K-562; conditions: K-562, 48 hours exposure; for CC50: read-out: LC50 K-562
SK-MEL-28 = assay: SRB colorimetric assay of cell growth and viability, SK-MEL-28; conditions: MEL-28, 48 hours exposure; for CC50: read-out: LC50 MEL-28
IGROV-ET = assay: SRB colorimetric assay of cell growth and viability, IGROV-ET; conditions: IGROV-ET, 48 hours exposure; for CC50: read-out: LC50 IGROV-ET

Row | Structure (SMILES) | GI50 (LNCaP) [µM] | TGI LN-caP (LNCaP) [Molar] | CC50 (LNCaP) [µM] | GI50 (LoVo-Dox) [µM] | TGI LOVO-DOX (LoVo-Dox) [Molar] | CC50 (LoVo-Dox) [µM] | GI50 (DU-145) [µM] | LC50 (concentration causing 50% net cell kill) (DU-145) [µM] | TGI DU-145 (DU-145) [Molar] | GI50 (HeLa-APL) [µM] | TGI HELA-APL (HeLa-APL) [Molar] | CC50 (HeLa-APL) [µM] | TGI HT-29 (HT-29) [Molar] | GI50 (HT-29) [µM] | CC50 (HT-29) [µM] | GI50 (IGROV-1) [µM] | LC50 (concentration causing 50% net cell killing) (IGROV-1) [µM] | TGI IGROV (IGROV-1) [Molar] | GI50 (PANC-1) [µM] | TGI PANC-1 (PANC-1) [Molar] | other results
1 | C/C=C1\NC(=O)[C@H](Cc2ccccc2)NC(=O)[C@@H](C(C)C)NC(=O)[C@@H]([C@@H](C)CC)NC(=O)[C@H](NC(=O)[C@H](NC(=O)[C@H](CCCN)NC(=O)[C@H]2CCCN2C(=O)[C@H](NC(=O)[C@@H](NC(=O)[C@@H]2CCCN2C(=O)[C@H](NC(=O)CCCC(C)C)C(C)C)C(C)C)C(C)C)[C@@H](C)CC)[C@@H](C)OC(=O)[C@H](C(C)C)NC1=O [Compound 117, [Pro^12]-KF] ({Hexanoyl(5-Me)}-[dV]PV[dV][dP][Orn][d(aIle)][d(aThr)][d(aIle)][dV]F[Dhb]V; ester 8-C) | 1.51 | 2.87E−06 | 5.45 | 1.83 | 3.59E−06 | 6.78 | 2.41 | 6.78 | 5.43E−06 | 1.84 | 3.98E−06 | 6.78 | 3.38E−06 | 0.0176 | ≥ 6.49 | 1.97 | 6.78 | 3.70E−06 | 3.88 | 6.78E−06 | CC50 (PANC-1): 6.78 µM; TGI A-549 (A-549): 6.78E−06 Molar; GI50 (A-549): 3.29 µM; CC50 (A-549): 6.78 µM; GI50 (HeLa): 1.53 µM; TGI HELA (HeLa): 2.89E−06 Molar; CC50 (HeLa): 5.46 µM; GI50 (SK-BR-3): 1.55 µM; LC50 (SK-BR-3): 5.62 µM; TGI SK-BR-3 (SK-BR-3): 2.96E−06 Molar; GI50 (K-562): 0.841 µM; TGI K-562 (K-562): 2.10E−06 Molar; CC50 (K-562): 5.22 µM; GI50 (SK-MEL-28): 2 µM; TGI MEL-28 (SK-MEL-28): 4.26E−06 Molar; CC50 (SK-MEL-28): 6.78 µM; GI50 (IGROV-ET): 1.82 µM; TGI IGROV-ET (IGROV-ET): 3.11E−06 Molar; CC50 (IGROV-ET): 5.34 µM
2 | C/C=C1\NC(=O)[C@H](Cc2ccccc2)NC(=O)[C@@H](C(C)C)NC(=O)[C@@H]([C@@H](C)CC)NC(=O)[C@H](NC(=O)[C@H](NC(=O)[C@H](CCCN)NC(=O)[C@H]2CCCN2C(=O)[C@H](NC(=O)[C@@H](NC(=O)CNC(=O)[C@H](NC(=O)CCCC(C)C)C(C)C)C(C)C)C(C)C)[C@@H](C)CC)[C@@H](C)OC(=O)[C@H](C(C)C)NC1=O [Compound 111, [Gly^12]-KF] ({Hexanoyl(5-Me)}-[dV]GV[dV][dP][Orn][d(aIle)][d(aThr)][d(aIle)][dV]F[Dhb]V; ester 8-C) | 0.4 | 6.97E−06 | 6.97 | 0.324 | 1.24E−06 | 4.39 | 0.725 | 6.97 | 2.53E−06 | 0.355 | 1.21E−06 | 3.51 | 2.59E−06 | 0.511 | 6.97 | 0.167 | 1.33 | 3.72E−07 | 0.453 | 1.71E−06 | CC50 (PANC-1): 5.81 µM; TGI A-549 (A-549): 2.59E−06 Molar; GI50 (A-549): 1.09 µM; CC50 (A-549): 6.16 µM; GI50 (HeLa): 1.26 µM; TGI HELA (HeLa): 2.94E−06 Molar; CC50 (HeLa): 6.86 µM; GI50 (SK-BR-3): 0.41 µM; LC50 (SK-BR-3): 5.94 µM; TGI SK-BR-3 (SK-BR-3): 1.54E−06 Molar; GI50 (K-562): 0.144 µM; TGI K-562 (K-562): 3.66E−07 Molar; CC50 (K-562): 2.06 µM; GI50 (SK-MEL-28): 0.25 µM; TGI MEL-28 (SK-MEL-28): 6.31E−07 Molar; CC50 (SK-MEL-28): 2.9 µM; GI50 (IGROV-ET): 0.264 µM; TGI IGROV-ET (IGROV-ET): 1.00E−06 Molar; CC50 (IGROV-ET): 6.97 µM
